Values quoted from earlier work, collected in patent US4599352A, “Antineoplastic platinum (IV) complexes and compositions” (priority 1984, dated 1986).

Tests used:
[1] = tested on: leukemia L1210; conditions: cited from earlier work
[2] = tested on: sarcoma-180, ascites form; conditions: cited from earlier work

Structure (SMILES)	Antitumor activity ranking [1]	Antitumor efficacy ranking [2]
[Cl][Pt]1([Cl])[NH]C2CCCCC2[NH]1 (single isomer, unassigned) [dichloro (1,2-diaminocyclohexane) platinum (II) complex trans (1) isomer]	highest activity	–
NC1CCCCC1N.[Cl-].[Cl-].[Pt+2] (stereo not drawn) [Cis-dichloro-cis-1,2-cyclohexanediamine platinum (II)]	least active	more efficacious than the corresponding trans isomers
[Cl][Pt]1([Cl])[NH]C2CCCCC2[NH]1 (single isomer, unassigned) [dichloro (1,2-diaminocyclohexane) platinum (II) complex trans (d) isomer]	intermediate activity	–
